A word on the pest or weed control: it is the degree to which the test organism was suppressed or injured, in per cent. A lower pest or weed control goes with a weak effect.

Holding throughout (assay type): in vivo
One experiment has as its system Septoria tritici. As to the kind of experiment: Test C: wheat leaf blotch, preventive spray on wheat seedlings, visual disease rating. Particulars: 100 = 100% disease control, 0 = no disease control relative to controls; for pest or weed control at 200 ppm: Zymoseptoria tritici, 504 h. The source says:
General protocol for preparing test suspensions for Tests A-F: […] The resulting test suspensions were then used in Tests A-F. The test suspensions were sprayed to the point of run-off on the test plants. All results are for 200 ppm (equivalent to a rate of 500 g/ha) except where followed by “*” which indicates 40 ppm. The test suspension was sprayed to the point of run-off on wheat seedlings. The following day the seedlings were inoculated with a spore suspension of Septoria tritici (the causal agent of wheat leaf blotch) and incubated in saturated atmosphere at 20° C. for 48 h, and moved to a growth chamber at 20° C. for 19 additional days, after which time visual disease ratings were made. […] A dash (-) indicates no test results. All results are for 200 ppm except where followed by “*”, which indicates 40 ppm.

Another experiment has as its system Botrytis cinerea. Kind of experiment: Test F: tomato Botrytis, preventive spray on tomato seedlings, visual disease rating. Particulars: 100 = 100% disease control, 0 = no disease control relative to controls; for pest or weed control at 200 ppm: Botrytis cinerea. From the text: General protocol for preparing test suspensions for Tests A-F: […] The resulting test suspensions were then used in Tests A-F. The test suspensions were sprayed to the point of run-off on the test plants. All results are for 200 ppm (equivalent to a rate of 500 g/ha) except where followed by “*” which indicates 40 ppm. The test suspension was sprayed to the point of run-off on tomato seedlings. The following day the seedlings were inoculated with a spore suspension of Botrytis cinerea (the causal agent of tomato Botrytis) and incubated in saturated atmosphere at 20° C. for 48 h, and then moved to a growth chamber at 24° C. for 3 days, after which time visual disease ratings were made. […] A dash (-) indicates no test results. All results are for 200 ppm except where followed by “*”, which indicates 40 ppm.

Another experiment concerns Septoria nodorum. As to the kind of experiment: Test D: wheat glume blotch, preventive spray on wheat seedlings, visual disease rating. Particulars: 100 = 100% disease control, 0 = no disease control relative to controls; for pest or weed control at 200 ppm: Parastagonospora nodorum. From the text: General protocol for preparing test suspensions for Tests A-F: […] The resulting test suspensions were then used in Tests A-F. The test suspensions were sprayed to the point of run-off on the test plants. All results are for 200 ppm (equivalent to a rate of 500 g/ha) except where followed by “*” which indicates 40 ppm. The test suspension was sprayed to the point of run-off on wheat seedlings. The following day the seedlings were inoculated with a spore suspension of Septoria nodorum (the causal agent of wheat glume blotch) and incubated in a saturated atmosphere at 20° C. for 48 h, and then moved to a growth chamber at 20° C. for 7 days, after which time visual disease ratings were made. […] A dash (-) indicates no test results. All results are for 200 ppm except where followed by “*”, which indicates 40 ppm.

For experiment [1], the system named is Puccinia recondita f. sp. tritici. Kind of experiment: Test B: wheat leaf rust, preventive spray on wheat seedlings, visual disease rating. Conditions: 100 = 100% disease control, 0 = no disease control relative to controls; for pest or weed control at 200 ppm: 192 h. From the text: General protocol for preparing test suspensions for Tests A-F: […] The resulting test suspensions were then used in Tests A-F. The test suspensions were sprayed to the point of run-off on the test plants. All results are for 200 ppm (equivalent to a rate of 500 g/ha) except where followed by “*” which indicates 40 ppm. The test suspension was sprayed to the point of run-off on wheat seedlings. The following day the seedlings were inoculated with a spore suspension of Puccinia recondita f. sp. tritici (the causal agent of wheat leaf rust) and incubated in a saturated atmosphere at 20° C. for 24 h, and then moved to a growth chamber at 20° C. for 7 days, after which time visual disease ratings were made. […] A dash (-) indicates no test results. All results are for 200 ppm except where followed by “*”, which indicates 40 ppm.

The subject of another experiment is Alternaria solani. Kind of experiment: Test E: tomato early blight, preventive spray on tomato seedlings, visual disease rating. Conditions: 100 = 100% disease control, 0 = no disease control relative to controls; for pest or weed control at 200 ppm: Alternaria solani. From the text:
General protocol for preparing test suspensions for Tests A-F: […] The resulting test suspensions were then used in Tests A-F. The test suspensions were sprayed to the point of run-off on the test plants. All results are for 200 ppm (equivalent to a rate of 500 g/ha) except where followed by “*” which indicates 40 ppm. The test suspension was sprayed to the point of run-off on tomato seedlings. […] A dash (-) indicates no test results. All results are for 200 ppm except where followed by “*”, which indicates 40 ppm.

The next experiment concerns Erysiphe graminis. As to the kind of experiment: Test A: wheat powdery mildew, preventive spray on wheat seedlings, visual disease rating. Particulars: 100 = 100% disease control, 0 = no disease control relative to controls; for pest or weed control at 200 ppm: Blumeria graminis, 192 h. The source says:
General protocol for preparing test suspensions for Tests A-F: […] The resulting test suspensions were then used in Tests A-F. The test suspensions were sprayed to the point of run-off on the test plants. All results are for 200 ppm (equivalent to a rate of 500 g/ha) except where followed by “*” which indicates 40 ppm. The test suspension was sprayed to the point of run-off on wheat seedlings. The following day the seedlings were inoculated with a spore dust of Erysiphe graminis, (the causal agent of wheat powdery mildew) and incubated in a growth chamber at 20° C. for 8 days, after which time visual disease ratings were made. […] A dash (-) indicates no test results. All results are for 200 ppm except where followed by “*”, which indicates 40 ppm.

Marks after values point to notes of the source that are not given here.

`COc1cc(OC)cc(-c2c(-c3ccccc3)nnc(CCl)c2-c2ccc(F)cc2)c1` [Compound 14, 3-(chloromethyl)-5-(3,5-dimethoxyphenyl)-4-(4-fluorophenyl)-6-phenylpyridazine]: the pest or weed control at 200 ppm in the experiment on Septoria tritici (200 ppm) is 77%; with Botrytis cinerea (200 ppm), 99%; in the experiment on Septoria nodorum (200 ppm), 0%; in experiment [1] (200 ppm) it was 91%; in the experiment on Alternaria solani (200 ppm) it was 0%; in the experiment on Erysiphe graminis (200 ppm) it was 11%.
In the case of `COc1cc(OC)cc(-c2c(-c3ccccc3F)nnc(C)c2-c2ccc(F)cc2F)c1` [Compound 15, 4-(2,4-difluorophenyl)-5-(3,5-dimethoxyphenyl)-6-(2-fluorophenyl)-3-methylpyridazine], the pest or weed control at 200 ppm in the experiment on Septoria tritici (200 ppm) amounted to 99%; in the experiment with Botrytis cinerea (200 ppm), 98%; in the experiment with Septoria nodorum (200 ppm), 98%; in experiment [1] (200 ppm), 100%; in the experiment on Alternaria solani (200 ppm), 100%; with Erysiphe graminis (200 ppm), 100%.
For `COc1cc(OC)cc(-c2c(-c3ccc(F)cc3F)cnnc2-c2ccccc2F)c1` [Compound 16], the “Test C rating (disease control, wheat leaf blotch)” value (from here on “Test C rating”) in the experiment on Septoria tritici (200 ppm) came out at 70%. Further, the “Test F rating (disease control, tomato Botrytis)” value (from here on “Test F rating”) with Botrytis cinerea (200 ppm) worked out at 99%. Moreover, the “Test D rating (disease control, wheat glume blotch)” value (“Test D rating” below) in the experiment with Septoria nodorum (200 ppm) was found to be 0%. In addition, in experiment [1] (200 ppm), the “Test B rating (disease control, wheat leaf rust)” value (“Test B rating” below) came to 96%. The “Test E rating (disease control, tomato early blight)” value (shortened to “Test E rating”) in the experiment on Alternaria solani (200 ppm) stood at 0%. Also, in the experiment with Erysiphe graminis (200 ppm), the “Test A rating (disease control, wheat powdery mildew)” value (“Test A rating” for short) turned out to be 0%.
Consider `COc1cc(OC)cc(-c2c(-c3ccccc3F)nnc(Cl)c2-c2ccc(F)cc2F)c1` [Compound 18, 3-chloro-4-(2,4-difluorophenyl)-5-(3,5-dimethoxyphenyl)-6-(2-fluorophenyl)pyridazine], for which the pest or weed control at 200 ppm in the experiment with Septoria tritici (200 ppm) came to 98%; in the experiment on Botrytis cinerea (200 ppm) it was 95%; with Septoria nodorum (200 ppm), 100%; in experiment [1] (200 ppm) it was 100%; in the experiment with Alternaria solani (200 ppm), 100%; with Erysiphe graminis (200 ppm), 95%.
`C=C(C)c1nnc(C)c(-c2ccc(OC)cc2)c1-c1cc(OC)cc(OC)c1` [Compound 19]: in the experiment on Septoria tritici (200 ppm), the “Test C rating” value was 98%. For the same compound, the “Test F rating” value with Botrytis cinerea (200 ppm) turned out to be 98%. In addition, in the experiment on Septoria nodorum (200 ppm), the “Test D rating” value stood at 0%. The “Test B rating” value in experiment [1] (200 ppm) turned out to be 98%. Further, the “Test E rating” value in the experiment on Alternaria solani (200 ppm) was 100%. Moreover, in the experiment with Erysiphe graminis (200 ppm), the “Test A rating” value is recorded as 61%.
As to `C=C(C)c1nnc(C)c(-c2ccc(F)cc2F)c1-c1cc(OC)cc(OC)c1` [Compound 20], in the experiment with Septoria tritici (200 ppm), the “Test C rating” value is given as 96%. Besides, the “Test F rating” value with Botrytis cinerea (200 ppm) is recorded as 99%. Moreover, the “Test D rating” value in the experiment with Septoria nodorum (200 ppm) is given as 0%. The “Test B rating” value in experiment [1] (200 ppm) amounted to 100%. The “Test E rating” value in the experiment with Alternaria solani (200 ppm) came out at 100%. For the same compound, in the experiment with Erysiphe graminis (200 ppm), the “Test A rating” value is given as 96%.
For `C=C(C)c1nnc(C)c(-c2c(F)cccc2F)c1-c1cc(OC)cc(OC)c1` [Compound 21], the “Test C rating” value in the experiment on Septoria tritici (40 ppm (marked *)) was 98* %. Further, the “Test F rating” value in the experiment with Botrytis cinerea (40 ppm (marked *)) was 98* %. In the experiment on Septoria nodorum (40 ppm (marked *)), the “Test D rating” value is 0* %. In addition, the “Test B rating” value in experiment [1] (40 ppm (marked *)) is listed as 99* %. Moreover, the “Test E rating” value in the experiment with Alternaria solani (40 ppm (marked *)) is 98* %. Also, the “Test A rating” value with Erysiphe graminis (40 ppm (marked *)) is 94* %.
On to `COc1cc(OC)cc(-c2c(-c3ccccc3F)nnc(C)c2-c2c(F)cccc2F)c1` [Compound 22], for which the “Test C rating” value in the experiment with Septoria tritici (40 ppm (marked *)) is listed as 97* %. Also, the “Test F rating” value with Botrytis cinerea (40 ppm (marked *)) was 95* %. In addition, the “Test D rating” value in the experiment with Septoria nodorum (40 ppm (marked *)) is on record as 84* %. In addition, in experiment [1] (40 ppm (marked *)), the “Test B rating” value is 100* %. Moreover, in the experiment on Alternaria solani (40 ppm (marked *)), the “Test E rating” value is listed as 100* %. Moreover, in the experiment on Erysiphe graminis (40 ppm (marked *)), the “Test A rating” value is on record as 99* %.
As for `Cc1nnc(-c2ccccc2F)c(-c2ccc(Cl)cc2)c1-c1c(F)cc(F)cc1F` [Compound 23], in the experiment on Septoria tritici (200 ppm), the “Test C rating” value is listed as 97%. Besides, the “Test F rating” value with Botrytis cinerea (200 ppm) is 86%. In the experiment on Septoria nodorum (200 ppm), the “Test D rating” value worked out at 0%. Also, the “Test B rating” value in experiment [1] (200 ppm) amounted to 99%. In addition, the “Test E rating” value in the experiment with Alternaria solani (200 ppm) is 96%. Further, the “Test A rating” value in the experiment with Erysiphe graminis (200 ppm) was found to be 99%.
For the compound `COc1cc(OC)cc(-c2c(-c3ccccc3F)nnc(C)c2-c2c(F)cc(F)cc2F)c1` [Compound 24, 4-(3,5-dimethoxyphenyl)-3-(2-fluorophenyl)-6-methyl-5-(2,4,6-trifluorophenyl)pyridazine], the pest or weed control at 200 ppm was 96% with Septoria tritici (200 ppm); 94% in the experiment on Botrytis cinerea (200 ppm); 100% with Septoria nodorum (200 ppm); 100% in experiment [1] (200 ppm); 100% in the experiment on Alternaria solani (200 ppm); 100% with Erysiphe graminis (200 ppm).
Regarding `Cc1nnc(-c2ccccc2F)c(-c2cccc(F)c2)c1-c1c(F)cc(F)cc1F` [Compound 25, 3-(2-fluorophenyl)-4-(3-fluorophenyl)-6-methyl-5-(2,4,6-trifluorophenyl)pyridazine], the pest or weed control at 200 ppm with Septoria tritici (200 ppm) worked out at 96%; with Botrytis cinerea (200 ppm) it was 98%; in the experiment with Septoria nodorum (200 ppm), 100%; in experiment [1] (200 ppm) it was 100%; in the experiment on Alternaria solani (200 ppm), 100%; with Erysiphe graminis (200 ppm) it was 99%.
Turning to `COc1cc(OC)cc(-c2c(-c3ccccc3F)nnc(OC)c2-c2c(F)cc(F)cc2F)c1` [Compound 26, 4-(3,5-dimethoxyphenyl)-3-(2-fluorophenyl)-6-methoxy-5-(2,4,6-trifluorophenyl)pyridazine], the pest or weed control at 200 ppm in the experiment with Septoria tritici (200 ppm) is 99%; in the experiment with Botrytis cinerea (200 ppm) it was 99%; in the experiment on Septoria nodorum (200 ppm), 100%; in experiment [1] (200 ppm), 100%; with Alternaria solani (200 ppm), 95%; in the experiment with Erysiphe graminis (200 ppm), 90%.
As for `COc1cc(OC)cc(-c2c(-c3cc(F)c(F)cc3F)cnnc2-c2ccccc2F)c1` [Compound 27, 4-(3,5-dimethoxyphenyl)-3-(2-fluorophenyl)-5-(2,4,5-trifluorophenyl)pyridazine], the pest or weed control at 200 ppm with Septoria tritici (200 ppm) turned out to be 99%; in the experiment on Botrytis cinerea (200 ppm), 100%; in the experiment on Septoria nodorum (200 ppm), 84%; in experiment [1] (200 ppm) it was 100%; in the experiment with Alternaria solani (200 ppm), 99%; in the experiment with Erysiphe graminis (200 ppm), 89%.

These data come from patent US20110136762A1, “FUNGICIDAL PYRIDAZINES” (E.I. Du Pont de Nemours and Company, priority 2008, published 2011).
